Measured values as given in paper PMC8477192, “An ionic lock and a hydrophobic zipper mediate the coupling between an insect pheromone receptor BmOR3 and downstream effectors” (The Journal of Biological Chemistry, 2021).

Tests used:
Type in all cases: cell-based
BmOR3 [1] = target: T1, BmOR3 (Bombyx mori, UniProt Q5FBE0); experiment: Arrestin-kinase BRET assay; conditions: HEK293 cells transfected with BmOR3, BmArr-Rluc and YFP-tagged kinases; 1 μM, 10 min
Method: Twenty-four hours after transfection, cells were distributed into a 96-well microplate. After another 24 h, the cells were stimulated with 1 μM bombykal (for BmOR3-transfected cells) or 1 μM AngII for 10 min (for AT1R-transfected cells). BRET between RLuc and YFP was measured using a Mithras LB 940 multimode reader after the addition of the RLuc substrate coelenterazine h (5 μM). The BRET signal was calculated as the ratio of emission of YFP (530 nm) to RLuc (485 nm).

BmOR3 [2] = target: T1, BmOR3; experiment: Western blotting of ERK and SRC phosphorylation; conditions: BmOR3-expressing HEK293 cells; 1 μM, 15 min; abrogated in β-arrestin siRNA-transfected cells
Method: HEK293 cells transfected with BmOR3 in the absence or presence of βarrestin1/2 siRNA were starved for 12 h at 37 °C before stimulated with 1 μM bombykal for 15 min. The cells were lysed in ice-cold lysis buffer (50 mM Tris-HCl, pH 7.4, 150 mM NaCl, 1 mM NaF, 1% Triton, 2 mM EDTA, 1% NP-40, 1% protease and phosphatase inhibitor cocktail), and the supernatant was collected after centrifugation. Proteins were separated by PAGE and transferred to PVDF membrane. After blocking in PBS containing 5% bovine serum albumin and 0.1% Tween-20, the membrane was incubated with the primary antibody at 4 °C overnight, followed by incubation with HRP conjugate–secondary antibody at RT for an hour. The signals were detected with the ECL system (Thermo Fisher Scientific). Primary antibodies were as follows: anti-ERK (Santa Cruz, Cat. No. sc-154); anti-pERK (Proteintech, Cat. No. 15361-1-AP); anti-SRC (Cell Signaling Technology, Cat. No. 2109S); anti-pSRC(Y416) (Cell Signaling Technology, Cat. No. 2101S); anti-beta actin (ORIGENE, Cat. No. TA811000); anti-βarrestin1(Proteintech, Cat. No. 15361-1-AP); anti-βarrestin2 (Proteintech, Cat. No. 10171-1-AP).

BmOR3–BmOrco = target: T2, BmOR3–BmOrco (Bombyx mori, UniProt Q5FBE0); experiment: BmOR3–BmOrco intermolecular BRET assay; conditions: HEK293 cells; 5 min stimulation; read-out: EC50 of BRET signal increase between Rluc-BmOR3 and YFP-BmOrco
T2 sequence (Q5FBE0 1-439): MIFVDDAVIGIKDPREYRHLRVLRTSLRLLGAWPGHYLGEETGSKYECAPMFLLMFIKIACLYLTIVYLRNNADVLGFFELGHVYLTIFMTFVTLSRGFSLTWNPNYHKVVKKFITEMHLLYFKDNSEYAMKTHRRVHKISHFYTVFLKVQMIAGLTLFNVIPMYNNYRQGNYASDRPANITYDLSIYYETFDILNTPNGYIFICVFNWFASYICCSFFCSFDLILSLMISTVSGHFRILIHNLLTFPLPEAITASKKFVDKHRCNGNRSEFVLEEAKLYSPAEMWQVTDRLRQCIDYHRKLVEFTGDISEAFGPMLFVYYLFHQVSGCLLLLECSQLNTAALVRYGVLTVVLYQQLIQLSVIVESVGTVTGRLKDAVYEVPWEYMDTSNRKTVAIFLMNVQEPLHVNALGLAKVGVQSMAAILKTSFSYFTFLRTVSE
T2 sequence (Q7YT34 1-472 partner): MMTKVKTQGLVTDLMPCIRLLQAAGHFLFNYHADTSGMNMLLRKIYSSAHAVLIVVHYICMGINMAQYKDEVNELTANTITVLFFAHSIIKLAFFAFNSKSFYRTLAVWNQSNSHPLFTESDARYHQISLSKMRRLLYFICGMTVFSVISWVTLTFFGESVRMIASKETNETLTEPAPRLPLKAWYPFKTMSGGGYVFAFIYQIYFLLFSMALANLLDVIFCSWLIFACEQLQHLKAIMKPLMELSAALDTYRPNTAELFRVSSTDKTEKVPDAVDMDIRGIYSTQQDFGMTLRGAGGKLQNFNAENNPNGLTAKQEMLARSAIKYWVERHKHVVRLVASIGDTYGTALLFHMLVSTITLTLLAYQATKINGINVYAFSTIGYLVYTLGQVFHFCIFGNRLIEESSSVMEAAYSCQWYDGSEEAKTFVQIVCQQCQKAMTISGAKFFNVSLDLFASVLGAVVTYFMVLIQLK
Method: HEK293 cells were cotransfected with the N-terminal Rluc-tagged WT BmOR3 together with N-terminal YFP-fused BmOrco plasmids or their mutants. Twenty-four hours after transfection, cells were distributed into a 96-well microplate. After another 24 h, the cells were stimulated with different concentrations of bombykal for 5 min. BRET between RLuc and YFP was measured using a Mithras LB 940 multimode reader after the addition of the RLuc substrate coelenterazine h (5 μM). The BRET signal was calculated as the ratio of emission of YFP (530 nm) to RLuc (485 nm). For the saturation BRET between Rluc-BmOrco and YFP-BmOR3, HEK293 cells were transfected with a fixed amount of Rluc-BmOrco and increasing amounts of YFP-BmOR3. The BRET signal between RLuc and YFP was directly measured after the addition of the substrate coelenterazine h (5 μM).

CCC/C=C\C=C\CCCCCCCCC=O [bombykal]
association of β-arrestin with ERK, SRC, and AKT (BmOR3 [1]): increased association
phosphorylation level of ERK (BmOR3 [2]): significantly elevated
phosphorylation level of SRC (BmOR3 [2]): significantly elevated
EC50 (BmOR3–BmOrco): 36 ± 3.89 nM
